According to patent US20040028760A1, “Method of treating inflammation and inflammation-related pain” (Michigan State University, priority 2002, published 2004):
Values after ≈ are worked out from the molar mass of the structure shown. “Also recorded” adds a separate entry of the source. Where two headings read alike, the source gives them in different places.

Tests used:
[1] = biological target: T1, prostaglandin H endoperoxide synthase-I (COX-I) (Ovis aries, UniProt P05979); assay: Cyclooxygenase inhibitory assay (initial rate of O2 uptake), COX-I; format: biochemical, ram; conditions: for inhibition at 100 µg/mL: read-out: COX-I inhibitory activity
T1 construct: was prepared from ram seminal vesicles; from tissue; host or cells: ram seminal vesicles
T1 sequence (P05979 25-600): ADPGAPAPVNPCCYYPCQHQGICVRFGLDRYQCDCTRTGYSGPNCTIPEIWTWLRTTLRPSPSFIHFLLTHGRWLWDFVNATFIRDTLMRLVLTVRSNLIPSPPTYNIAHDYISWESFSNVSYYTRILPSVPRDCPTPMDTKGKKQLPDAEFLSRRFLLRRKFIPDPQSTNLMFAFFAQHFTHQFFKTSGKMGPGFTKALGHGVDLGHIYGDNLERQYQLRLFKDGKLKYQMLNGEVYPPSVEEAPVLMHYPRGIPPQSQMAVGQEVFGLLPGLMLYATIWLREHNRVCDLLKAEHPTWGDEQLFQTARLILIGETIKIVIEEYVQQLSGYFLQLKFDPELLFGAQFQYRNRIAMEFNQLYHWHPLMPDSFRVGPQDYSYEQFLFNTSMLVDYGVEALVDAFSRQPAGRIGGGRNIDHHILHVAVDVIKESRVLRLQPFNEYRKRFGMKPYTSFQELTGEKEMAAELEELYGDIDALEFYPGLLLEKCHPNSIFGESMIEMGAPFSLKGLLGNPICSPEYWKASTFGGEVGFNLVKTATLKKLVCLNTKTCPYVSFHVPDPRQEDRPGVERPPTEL
Description: (§1) Prostaglandin H synthase isozymes-I (PGHS-I or COX-I) was prepared from ram seminal vesicles. PGHS-II or COX-II enzyme for the assay was prepared from lysates of cloned insect cell with human PGHS-II enzyme. Each assay mixture contained 600 μL of 0.1 M Tris buffer (pH 7), 1 mM phenol, 17 μg hemoglobin and 10 μL of COX-I or 20-30 μL of COX-II enzymes. Crude extracts or pure compounds were preincubated with 25-100 μg mL^−1 in DMSO for 5-minutes with COX-I or COX-II enzymes in the assay chamber at 37° C. […] Instantaneous inhibition of the enzyme was determined by monitoring the initial rate of O2 uptake using an O2 electrode.

[2] = biological target: T2, human PGHS-II (COX-II) enzyme (Homo sapiens, UniProt P35354); assay: Cyclooxygenase inhibitory assay (initial rate of O2 uptake), COX-II; format: biochemical
T2 construct: made in house; host or cells: insect cells (lysates)
T2 sequence (P35354 18-604): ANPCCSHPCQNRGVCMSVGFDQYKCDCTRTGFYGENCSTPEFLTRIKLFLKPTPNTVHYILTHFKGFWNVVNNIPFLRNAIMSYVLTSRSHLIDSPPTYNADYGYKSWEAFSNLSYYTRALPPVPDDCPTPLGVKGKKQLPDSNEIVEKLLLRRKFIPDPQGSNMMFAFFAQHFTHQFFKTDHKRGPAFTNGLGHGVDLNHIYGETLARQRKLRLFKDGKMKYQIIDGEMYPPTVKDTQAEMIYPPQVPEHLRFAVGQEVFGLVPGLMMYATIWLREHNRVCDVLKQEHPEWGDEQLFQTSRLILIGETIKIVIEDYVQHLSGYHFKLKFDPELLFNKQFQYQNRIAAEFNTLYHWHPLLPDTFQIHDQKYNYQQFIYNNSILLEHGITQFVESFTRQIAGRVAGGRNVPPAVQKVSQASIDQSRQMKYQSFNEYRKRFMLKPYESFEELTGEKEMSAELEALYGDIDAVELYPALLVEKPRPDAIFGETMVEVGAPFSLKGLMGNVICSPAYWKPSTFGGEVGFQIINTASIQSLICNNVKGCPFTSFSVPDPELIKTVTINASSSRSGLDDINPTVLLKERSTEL
Description: as §1

[3] = test system: COX-I; conditions: less than 500 μM; cited from earlier work
[4] = biological target: T3, COX-II (Ovis aries, UniProt P79208); conditions: less than 500 μM; cited from earlier work
T3 sequence (P79208 17-603): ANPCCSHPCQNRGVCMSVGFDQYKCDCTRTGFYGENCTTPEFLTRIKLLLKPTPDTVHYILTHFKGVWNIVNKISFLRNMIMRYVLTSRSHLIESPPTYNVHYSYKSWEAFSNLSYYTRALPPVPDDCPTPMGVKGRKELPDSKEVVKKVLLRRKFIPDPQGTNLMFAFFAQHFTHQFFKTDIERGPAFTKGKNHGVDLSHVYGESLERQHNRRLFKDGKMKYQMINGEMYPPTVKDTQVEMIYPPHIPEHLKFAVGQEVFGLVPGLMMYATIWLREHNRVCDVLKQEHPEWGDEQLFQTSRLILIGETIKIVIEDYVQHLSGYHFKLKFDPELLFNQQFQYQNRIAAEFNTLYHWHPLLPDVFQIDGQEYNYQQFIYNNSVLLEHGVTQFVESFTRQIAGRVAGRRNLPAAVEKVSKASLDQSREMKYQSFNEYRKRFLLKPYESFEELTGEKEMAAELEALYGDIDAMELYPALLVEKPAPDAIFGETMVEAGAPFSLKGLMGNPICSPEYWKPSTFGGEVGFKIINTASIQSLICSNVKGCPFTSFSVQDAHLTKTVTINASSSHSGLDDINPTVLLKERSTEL

[5] = biological target: T4, cyclooxygenase; format: biochemical
T4 construct: "prepared from ram seminal vesicles"
Description: as §1

[6] = 100 μg mL^−1, compared to solvent control

With `COc1cc(OC)c(C(=O)O)cc1OC` [2,4,5-trimethoxybenzoicacid, reference compound] the “COX-I inhibition (result in words)” value ([1]; 100 μg mL^−1) was “didn't exhibit any inhibition” and the “COX-II inhibition (result in words)” value ([2]; 100 μg mL^−1) was “didn't exhibit any inhibition”.
For `COc1cc(OC)c(OC)cc1C=O` [Compound 1, 2,4,5-trimethoxybenzaldehyde], the inhibition at 100 µg/mL [1] was 3.32%, the inhibition at 25 µg/mL ([2]; 25 μg mL^−1) was > 30% and the inhibition at 100 µg/mL ([2]; 100 μg mL^−1) was 52.7%. For the same compound, the “selectivity towards COX-II enzyme inhibition (in words)” value ([2]; 100 μg mL^−1, COX-II versus COX-I) was “selectivity towards COX-II enzyme inhibition; also recorded: selective inhibition of COX-II enzyme” and the COX-II/COX-I ratio [2, 6] was 17.68.
Work on `CCCCCCCC/C=C\CCCCCCCC(=O)O` [Compound 2, oleic acid] yielded an inhibition at 100 µg/mL ([1]; 100 μg mL^−1) of 45.3%, an inhibition at 100 µg/mL ([2]; 100 μg mL^−1) of 68.4% and a COX-II/COX-I ratio [2, 6] of 1.51. The “COX-I inhibition (in words)” value [3] was “not COX-I or COX-II inhibitory” and the “COX-II inhibition (in words)” value [4] was “not COX-I or COX-II inhibitory”.
Work on `C/C=C/c1cc(OC)c(OC)cc1OC` [Compound 3, trans-asarone] yielded a COX-I inhibitory activity ([1]; 100 μg mL^−1) of 46.15%, a COX-II inhibitory activity ([2]; 100 μg mL^−1) of 64.39% and a COX-II/COX-I ratio [2, 6] of 1.4.
For `CC(C)=CCC/C(C)=C/CO` [Compound 4, geraniol], the “COX-I inhibition (result in words)” value ([1]; 100 μg mL^−1) was “not active; also recorded: did not inhibit”, the inhibition at 100 µg/mL ([1]; 100 μg mL^−1) was 3.15% and the “COX-II inhibition (result in words)” value ([2]; 100 μg mL^−1) was “not active; also recorded: did not inhibit”. For the same compound, the inhibition at 100 µg/mL ([2]; 100 μg mL^−1) was 0%.
`CC(C)Cc1ccc(C(C)C(=O)O)cc1` (stereo not drawn) [Ibuprofen] gave an IC50 values [5] of 2.52 µg/mL (≈ 12.2 µM).
Compound `COc1ccc2cc([C@H](C)C(=O)O)ccc2c1` [Naproxen, reference compound] has a COX-II/COX-I ratio [2] of 0.92 and an IC50 values ([5]; concentration at which the reference drug was assayed, isozyme not stated) of 2.06 µg/mL (≈ 8.95 µM).
With `COc1cc(OC)c(OC)cc1C=O` [Synthetic 2,4,5-trimethoxybenzaldehyde, 2,4,5-trimethoxybenzaldehyde, reference compound] the “COX-II inhibition of commercial synthetic sample versus natural product (in words)” value ([2]; 25-100 μg mL^−1) was “slightly lower COX-II activity than natural form”.
`CS(=O)(=O)c1ccc(C2=C(c3ccccc3)C(=O)OC2)cc1` [Vioxx, reference compound] gave a COX-II/COX-I ratio [2] of 75.
